Results published in paper PMC3610872, “Full and Partial Agonists of Thromboxane Prostanoid Receptor Unveil Fine Tuning of Receptor Superactive Conformation and G Protein Activation” (PLoS ONE, 2013).
Where a chain is given by its changes, count along the chain named.

Key:
[1] = molecular target: T1, WT human TP receptor (Homo sapiens, UniProt P21731); test: BRET2 measurement of Gq protein activation, WT receptor; assay type: cell-based; settings: HEK293 cells, value ±%CV; for EC50: Gαq-Rluc8/GFP10-Gγ2/Gβ1, 2 min ligand
T1 construct: expressed in transfected cells; host or cells: HEK293
T1 sequence (P21731 1-343): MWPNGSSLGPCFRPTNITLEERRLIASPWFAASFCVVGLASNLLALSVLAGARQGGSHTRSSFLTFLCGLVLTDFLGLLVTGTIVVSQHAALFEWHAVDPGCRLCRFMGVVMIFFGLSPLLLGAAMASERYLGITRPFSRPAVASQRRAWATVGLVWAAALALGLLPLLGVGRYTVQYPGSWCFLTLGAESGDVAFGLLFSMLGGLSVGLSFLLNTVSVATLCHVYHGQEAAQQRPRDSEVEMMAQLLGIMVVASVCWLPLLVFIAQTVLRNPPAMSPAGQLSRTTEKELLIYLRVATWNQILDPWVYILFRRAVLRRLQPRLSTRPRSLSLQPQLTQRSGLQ
From the text: HEK 293 cells were co-transfected with vectors expressing the GFP^10-Gγ2, Gβ1, Gαq-Rluc8 and WT or E129V mutant of TP receptor to investigate direct G protein activation with an intramolecular bioluminescent resonance energy transfer (BRET^2) strategy. To avoid possible variations in the BRET signaling resulting from fluctuation in the relative expression levels of the energy donor and acceptor, we designed transfection conditions to maintain constant GFP^10 and Rluc8 expression and their ratios in each experimental set. Total fluorescence and luminescence were directly determined in an aliquot of the transfected cells using an Infinite F500 microplate reader (Tecan, Milan, Italy) as previously described. […] 48 hours after transfection, cells were washed once with PBS, detached, and resuspended in PBS+0.1% (w/v) glucose at room temperature. Cells were then distributed (80 µg of proteins per well) into a 96-well microplate (Wallac, Perkin Elmer, Monza, Italy) and incubated in the presence or absence of increasing concentrations of ligands for 2 min before the addition of the luciferase substrate Coelenterazine 400a (5 µM; Biotium, Hayward, CA). BRET signal between Rluc8 and GFP^10 was measured immediately after the addition of the Rluc substrate in the microplate reader. The BRET signal was calculated as the ratio of the light emitted by GFP^10 (510–540 nm) over the light emitted by Rluc8 (370–450 nm). The changes in BRET induced by the ligands were expressed as Òagonist-induced BRETÓ, obtained by subtracting the BRET signal detected in the presence of PBS by the BRET signal detected in the presence of the specific ligand.
(§1) All average results are presented as mean±S.E. When indicated, ANOVA followed by post-hoc test for multiple comparisons was performed. Data from radioligand binding were evaluated by a nonlinear, least-squares curve-fitting procedure using GraphPad Prism version 4, implemented with the n-ligand m-binding site model, as described in the LIGAND computer program. Concentration-response curves were evaluated using Prism 4, which use the four parameters logistic model as described in the ALLFIT program. Parameter errors are all expressed in percentage coefficient of variation (%CV) and calculated by simultaneous analysis of at least two different independent experiments performed in duplicate or triplicate. Parameter comparison has been performed on the base of the F test for extra sum of square principle. All curves shown are computer generated.
This recorded real time conformational changes between the α and the βγ subunits within the Gq protein, where a decrease of the BRET signal provoked by agonist-induced receptor activation is indicative of a conformational reorganization leading the Gα-Gβγ interface to open, reflects the initial event of Gq protein activation, [23] (Figure 6A).

[2] = molecular target: T2, E129V mutant human TP receptor (Homo sapiens, UniProt P21731, E129V); test: Total inositol phosphate (IP) accumulation, E129V mutant; assay type: cell-based; settings: HEK293 cells; for EC50 / Emax, total IP / Pharmacodynamic behaviour in total IP assay: E129V; for Activity ratio (EC50 WT over EC50 E129V), total IP: WT vs E129V; for Pharmacodynamic behaviour in total IP assay: SQ29,548 in absence or presence of Gαq overexpression
T2 construct: expressed in transfected cells; host or cells: HEK293
T2 sequence (P21731 1-343 E129V): T1 sequence (P21731 1-343) with E129V
Protocol: (§2) Receptor expression and functional activity were monitored 48 hours after transfection. […] Heterologous competition studies involved concentrations of the indicated unlabeled ligands extending from 0.1 nM to 30 µM. After 30 min incubation at 25 °C, the reaction was stopped by aspiration of the medium, cells were washed with ice-cold PBS containing 0.2% (w/v) BSA and lysed in 0.5 N NaOH. Radioactivity was measured by liquid scintillation counting. Binding data were analyzed as described in Data and Statistical Analysis. Quantification of the total labeled inositol phosphates (IP) accumulation was performed using a conventional gravity flow column chromatography, as described previously, [19]. Briefly, the day before the assay, cells were labeled with 0,5 µCi of [myo-2-^3H]inositol (17 Ci/mmol) for 18–20 hours in serum-free, inositol-free DMEM containing 20 mM HEPES buffer, pH 7.4, and 0.5% (w/v) Albumax I. The day of the assay, media was replaced with serum-free, inositol-free DMEM containing 25 mM LiCl and cells stimulated for 30 min with the indicated agonists. After removal of the medium, cells were lysed with 10 mM formic acid and lysates were applied onto an anion exchange AG 1X-8 column, formate form, 200–400 mesh. The total IP fraction was then eluted with 2 M ammonium formate/formic acid buffer at pH 5 and radioactivity determined by liquid scintillation counting. Rescue experiments were performed essentially as above, except for a 18 hours incubation step with 1 µΜof […] followed by its removal by washing three times with ice-cold PBS containing 1 mM MgCl2 and 0.1 mM CaCl2 before starting the experiment.
as §1

[3] = molecular target: T2, E129V mutant human TP receptor; test: [3H]SQ29,548 radioligand binding (mixed-type and heterologous competition), E129V mutant; settings: HEK293 cells; for Ki: E129V, competition vs 1 nM [3H]SQ29,548, 25°C 30 min, value ±%CV; for Affinity ratio (Ki WT over Ki E129V): WT vs E129V
Protocol: as §2, §1
(§3) Thus, transfection conditions were adjusted to secure equivalent levels of receptor expression for WT and mutants as previously described, [17], [19]. […] All the experiments were conducted within this range of receptor expression, if not specified differently.

[4] = molecular target: T1, WT human TP receptor; test: Total inositol phosphate (IP) accumulation, WT receptor; assay type: cell-based; settings: HEK293 cells; for Pharmacodynamic behaviour in total IP assay: SQ29,548 in absence or presence of Gαq overexpression
Protocol: as §2, §1

[5] = molecular target: T2, E129V mutant human TP receptor; test: BRET2 measurement of Gq protein activation, E129V mutant; assay type: cell-based; settings: HEK293 cells; for EC50: E129V, Gαq-Rluc8/GFP10-Gγ2/Gβ1, 2 min ligand, value ±%CV; for Activity ratio (EC50 WT over EC50 E129V), BRET: WT vs E129V
Protocol: as §1

[6] = molecular target: T1, WT human TP receptor; test: [3H]SQ29,548 radioligand binding (mixed-type and heterologous competition), WT receptor; settings: HEK293 cells, competition vs 1 nM [3H]SQ29,548, 25°C 30 min, value ±%CV
Protocol: as §2, §1, §3

[7] = molecular target: T3, double mutant E129V/E240V of human TP receptor (Homo sapiens, UniProt P21731, E129V/E240V); test: Total inositol phosphate (IP) accumulation, E129V/E240V double mutant, rescue with SQ29,548; assay type: cell-based; settings: cells exposed to 1 µM for 18 hours, removed by washing, then 1 µM U46619 for 30 min
T3 construct: expressed in transfected cells; host or cells: HEK293
T3 sequence (P21731 1-343 E129V/E240V): T1 sequence (P21731 1-343) with E129V, E240V
Protocol: Receptor expression and functional activity were monitored 48 hours after transfection. […] Heterologous competition studies involved concentrations of the indicated unlabeled ligands extending from 0.1 nM to 30 µM. After 30 min incubation at 25 °C, the reaction was stopped by aspiration of the medium, cells were washed with ice-cold PBS containing 0.2% (w/v) BSA and lysed in 0.5 N NaOH. Radioactivity was measured by liquid scintillation counting. Binding data were analyzed as described in Data and Statistical Analysis. Quantification of the total labeled inositol phosphates (IP) accumulation was performed using a conventional gravity flow column chromatography, as described previously, [19]. […] The total IP fraction was then eluted with 2 M ammonium formate/formic acid buffer at pH 5 and radioactivity determined by liquid scintillation counting. […]
All average results are presented as mean±S.E. When indicated, ANOVA followed by post-hoc test for multiple comparisons was performed. Data from radioligand binding were evaluated by a nonlinear, least-squares curve-fitting procedure using GraphPad Prism version 4, implemented with the n-ligand m-binding site model, as described in the LIGAND computer program. Concentration-response curves were evaluated using Prism 4, which use the four parameters logistic model as described in the ALLFIT program. […]

[8] = 30 min stimulation, no Gαq overexpression, value ±%CV
[9] = Gαq overexpression (5x), 30 min

| SMILES | EC50 [1] | Emax, agonist-induced BRET [1] | EC50 ([2]; 30 min stimulation, value ±%CV) | Emax, total IP ([2]; 30 min stimulation, value ±%CV) | Activity ratio (EC50 WT over EC50 E129V), total IP [2] | Ki [3] | Affinity ratio (Ki WT over Ki E129V) [3] | Emax, total IP [4, 8] | EC50 ([4]; 30 min stimulation, value ±%CV) | EC50 [5] | Activity ratio (EC50 WT over EC50 E129V), BRET [5] | Ki [6] | EC50 [2, 9] | Emax, total IP [2, 9] | Emax, total IP ([2]; no Gαq overexpression, 30 min) | Pharmacodynamic behaviour in total IP assay [2] | EC50 [4, 9] | Emax, total IP [4, 9] | Pharmacodynamic behaviour in total IP assay [4] | Functional rescue of double mutant receptor activity [7] |
| --- | --- | --- | --- | --- | --- | --- | --- | --- | --- | --- | --- | --- | --- | --- | --- | --- | --- | --- | --- | --- |
| CCCCC[C@H](O)/C=C/[C@H]1[C@H](O)CC(=O)[C@H]1C/C=C\CCCC(=O)O [8-isoPGE2, 8-iso Prostaglandin E2] | 1980 ± 72 nM | −0.02±42 | 95.9 ± 60 nM | 12201±5 dpm/wel | 12.0 | 547.6 ± 2 nM | 5.3 | 5087±21 dpm/well | 1160 ± 72 nM | 485 ± 46 nM | 4.1 | 2.916 ± 0.015 µM |  |  |  |  |  |  |  |  |
| CCCCC[C@H](O)/C=C/[C@@H]1[C@H](C/C=C\CCCC(=O)O)[C@@H](O)C[C@H]1O [8-isoPGF2α, 8-iso Prostaglandin F2α] | 3940 ± 48 nM | −0.05±9 | 493 ± 53 nM | 15287±7 dpm/wel | 8.1 | 2908 ± 11 nM | 4.4 | 6744±42 dpm/well | 4000 ± 68 nM | 404 ± 31 nM | 9.7 | 12.93 ± 0.019 µM |  |  |  |  |  |  |  |  |
| O=C(O)CCCC=CCC1C2CCC(O2)C1C=CC(O)COc1ccc(I)cc1 (stereo not drawn) [I-BOP, [1S-[1α,2α(Z),3β(1E,3S*),4α]]-7-[3-[3-hydroxy-4-(4-iodophenoxy)-1-butenyl]-7-oxabicyclo[2.2.1]hept-2-yl]-5-heptenoic acid] | 13 ± 27 nM | −0.07±5 | 2.99 nM | 17156±8 dpm/wel |  | 3.9 nM |  | 13099±14 dpm/well | 25.1 ± 65 nM | 3.96 nM |  | 0.0243 ± 0.018 µM |  |  |  |  |  |  |  |  |
| CCCCC[C@H](O)/C=C/C1CC2CC(C1C/C=C\CCCC(=O)O)C2(C)C (stereo partly drawn) [PTA2, 9α,11α-(dimethyl)methylene-15S-hydroxy-11α-deoxy-11α-methylene-thromba-5Z,13E-dien-1-oic acid] |  |  |  |  |  | 4840 nM |  | 5856 dpm/well |  |  |  | 12.1 µM | 747 nM | 26642 dpm/well | 19423 dpm/well | much stronger agonist | 1450 nM | 19670 dpm/well | very weak partial agonist |  |
| O=C(O)CCC/C=C\C[C@@H]1[C@H](CNNC(=O)Nc2ccccc2)[C@H]2CC[C@@H]1O2 [SQ29,548, [1S-[1α,2α(Z),3α,4α]]-7-[3-[[2-[(phenylamino)carbonyl]-hydrazino]methyl]-7-oxabicyclo[2.2.1]hept-2-yl]-5-heptenoic acid] |  |  |  |  |  |  |  |  |  |  |  |  |  |  |  | pure antagonist |  |  | pure antagonist | able to rescue double mutant receptor functional activity, albeit not completely |
